{"source": "paper PMC9601927", "about": "(Foods, 2022)", "key": {"Caco-2 cell monolayer": {"system": "Caco-2 cell monolayer", "test": "ANC transmembrane transport across Caco-2 cell monolayer (Transwell, HPLC)", "assay_type": "in vitro ADME", "protocol": "In this work, we utilized and slightly modified a procedure from Zou et al. to perform ANC transport studies. Firstly, ANC commercial powder was pre-dissolved in ultra-pure water and phosphate-buffered solution (PBS, pH7.4) was used for FA-g-CS dissolving. Then, pre-warmed phosphate-buffered saline (PBS) was used to wash and equilibrate the Transwell. Subsequently, the transport buffer containing ANC was added to the basolateral (1.5 mL) or the apical (0.5 mL) side of the inserts, while the corresponding volume of transport buffer was added to the receiving container. Samples measuring 50 uL were taken after 1, 2, 3, and 4 h incubation, and the same amount of pre-warmed PBS was replenished immediately. The samples were treated with HCl and frozen until HPLC analysis. The ANC-absorption-enhancing studies with FA-g-CS across Caco-2 cells were conducted using a transport buffer containing FA-g-CS+ANC instead of ANC alone.\nTransport efficiency (A→B (%)) was calculated according to the following formula: (concentrations of the compound at basolateral side overtime)/(concentrations of the compound at the apical side at zero hours) × 100. The apparent permeability coefficient (Papp) was defined as follows: Papp = (dQ/dt)(1/[AC0]); here, A represents the surface area of the Transwell, C0 represents the compound concentration added in the apical side, and the transport rate of the compound over time is denoted by dQ/dt."}, "Caco-2 cells": {"system": "Caco-2 cells", "test": "MTT cell viability assay", "assay_type": "cell-based", "protocol": "Caco-2 cells were provided by the Cell Bank of the Chinese Academy of Sciences (Shanghai, China). MTT analysis was used to investigate cell viability. In short, Caco-2 cells were incubated with ANC (0.23, 0.69, 2.06, 6.17, 18.52, 55.56, 166.67, or 500 × 10^−3 mg/mL), FA-g-CS (0.09, 0.27, 0.82, 2.47, 7.41, 22.22, 66.67, or 200 × 10^−3 mg/mL), or their respective combinations. Each group was incubated with three multiple wells for 48 h. Subsequently, the chemical medium was replaced with fresh MTT solution for 3 h at 37 °C and the […] was dissolved with DMSO. Then, the optical density (OD) was measured at 570 nm using a PerkinElmer EnVision (PerkinElmer, Waltham, MA, USA). The following Formula (1) was used to calculate cell viability:(1) Cell viability(%)=ODsample−ODblank/ODcontrol−ODblank where ODcontrol, ODsample, and ODblank represent the measurements of the control, sample, and blank, respectively."}, "sGLT1": {"system": "sGLT1", "test": "Immunofluorescence staining of sGLT1 in Caco-2 cells", "assay_type": "cell-based", "details": "ANC 2.3 × 10^−4 mg/mL or FA-g-CS 9 × 10^−5 mg/mL, 48 h", "protocol": "Immunofluorescence staining was carried out to further validate the effect of FA-g-CS/ANC on the expression of sGLT1 and GLUT2. In short, Caco-2 cells were transfected with NC siRNA (negative control), GLUT2-siRNA-2, and sGLT1-siRNA-3; then, they were seeded onto a 4-well slide and chamber (Watson, Kobe, Japan). Subsequently, cells were incubated with 0.09 µg/mL FA-g-CS, 0.23 µg/mL ANC, or their combination at 37 °C for 48 h. Then, they were fixed with 4% paraformaldehyde for 10 min and soaked with 0.5% Triton X-100 in PBS for 15 min. In this study, goat serum was used to avoid nonspecific binding at room temperature. After 30 min of treatments, the cells were incubated with the primary antibody ([…], Santa Cruz Biotechnology, with 1:100 dilutions) at 4 °C overnight, followed by incubation with the secondary antibody (goat anti-mouse IgG1-HRP, Santa Cruz Biotechnology, Shanghai, China, with 1:100 dilutions) for 1 h at 20–37 °C. Nuclear staining was performed with DAPI, and the images were captured with a fluorescence microscope (BX53, Olympus, Tokyo, Japan)."}}}
{"smiles": "OC[C@H]1O[C@@H](Oc2cc3c(O)cc(O)cc3[o+]c2-c2ccc(O)c(O)c2)[C@H](O)[C@@H](O)[C@@H]1O", "note": "[ANC, Cyanidin-3-glucoside]", "values": [{"measurement": "Concentrations of ANC at the Basolateral Side", "setting": "Caco-2 cell monolayer; apical ANC 0.05 ×10^−3 mg/mL, without FA-g-CS co-treatment, 3 h", "value": "0.0004 ± 0.00001", "unit": "c ×10^−3 mg/mL"}, {"measurement": "Concentrations of ANC at the Basolateral Side", "setting": "Caco-2 cell monolayer; apical ANC 0.05 ×10^−3 mg/mL, without FA-g-CS co-treatment, 4 h", "value": "0.0004 ± 0.00001", "unit": "c ×10^−3 mg/mL"}, {"measurement": "Concentrations of ANC at the Basolateral Side", "setting": "Caco-2 cell monolayer; apical ANC 0.10 ×10^−3 mg/mL, in presence of 0.05 × 10^−3 mg/mL FA-g-CS, 1 h", "value": "0.0010 ± 0.0001", "unit": "bc ×10^−3 mg/mL"}, {"measurement": "Concentrations of ANC at the Basolateral Side", "setting": "Caco-2 cell monolayer; apical ANC 0.10 ×10^−3 mg/mL, in presence of 0.05 × 10^−3 mg/mL FA-g-CS, 2 h", "value": "0.0010 ± 0.0002", "unit": "bc ×10^−3 mg/mL"}, {"measurement": "Concentrations of ANC at the Basolateral Side", "setting": "Caco-2 cell monolayer; apical ANC 0.10 ×10^−3 mg/mL, in presence of 0.05 × 10^−3 mg/mL FA-g-CS, 3 h", "value": "0.0019 ± 0.0001", "unit": "d ×10^−3 mg/mL"}, {"measurement": "Concentrations of ANC at the Basolateral Side", "setting": "Caco-2 cell monolayer; apical ANC 0.10 ×10^−3 mg/mL, in presence of 0.05 × 10^−3 mg/mL FA-g-CS, 4 h", "value": "0.0021 ± 0.0002", "unit": "d ×10^−3 mg/mL"}, {"measurement": "Concentrations of ANC at the Basolateral Side", "setting": "Caco-2 cell monolayer; apical ANC 0.10 ×10^−3 mg/mL, without FA-g-CS co-treatment, 1 h", "value": "0.0004 ± 0.00002", "unit": "a ×10^−3 mg/mL"}, {"measurement": "Concentrations of ANC at the Basolateral Side", "setting": "Caco-2 cell monolayer; apical ANC 0.10 ×10^−3 mg/mL, without FA-g-CS co-treatment, 2 h", "value": "0.0008 ± 0.00001", "unit": "b ×10^−3 mg/mL"}, {"measurement": "Concentrations of ANC at the Basolateral Side", "setting": "Caco-2 cell monolayer; apical ANC 0.10 ×10^−3 mg/mL, without FA-g-CS co-treatment, 3 h", "value": "0.0009 ± 0.00001", "unit": "b ×10^−3 mg/mL"}, {"measurement": "Concentrations of ANC at the Basolateral Side", "setting": "Caco-2 cell monolayer; apical ANC 0.10 ×10^−3 mg/mL, without FA-g-CS co-treatment, 4 h", "value": "0.0012 ± 0.00002", "unit": "c ×10^−3 mg/mL"}, {"measurement": "Concentrations of ANC at the Basolateral Side", "setting": "Caco-2 cell monolayer; apical ANC 0.15 ×10^−3 mg/mL, in presence of 0.05 × 10^−3 mg/mL FA-g-CS, 1 h", "value": "0.0017 ± 0.0002", "unit": "c ×10^−3 mg/mL"}, {"measurement": "Concentrations of ANC at the Basolateral Side", "setting": "Caco-2 cell monolayer; apical ANC 0.15 ×10^−3 mg/mL, in presence of 0.05 × 10^−3 mg/mL FA-g-CS, 2 h", "value": "0.0025 ± 0.0002", "unit": "d ×10^−3 mg/mL"}, {"measurement": "Concentrations of ANC at the Basolateral Side", "setting": "Caco-2 cell monolayer; apical ANC 0.15 ×10^−3 mg/mL, in presence of 0.05 × 10^−3 mg/mL FA-g-CS, 3 h", "value": "0.0030 ± 0.0001", "unit": "e ×10^−3 mg/mL"}, {"measurement": "Concentrations of ANC at the Basolateral Side", "setting": "Caco-2 cell monolayer; apical ANC 0.15 ×10^−3 mg/mL, in presence of 0.05 × 10^−3 mg/mL FA-g-CS, 4 h", "value": "0.0035 ± 0.0001", "unit": "f ×10^−3 mg/mL"}, {"measurement": "Concentrations of ANC at the Basolateral Side", "setting": "Caco-2 cell monolayer; apical ANC 0.15 ×10^−3 mg/mL, without FA-g-CS co-treatment, 1 h", "value": "0.0006 ± 0.00001", "unit": "a ×10^−3 mg/mL"}, {"measurement": "Concentrations of ANC at the Basolateral Side", "setting": "Caco-2 cell monolayer; apical ANC 0.15 ×10^−3 mg/mL, without FA-g-CS co-treatment, 2 h", "value": "0.0009 ± 0.00002", "unit": "b ×10^−3 mg/mL"}, {"measurement": "Concentrations of ANC at the Basolateral Side", "setting": "Caco-2 cell monolayer; apical ANC 0.15 ×10^−3 mg/mL, without FA-g-CS co-treatment, 3 h", "value": "0.0010 ± 0.0003", "unit": "b ×10^−3 mg/mL"}, {"measurement": "Concentrations of ANC at the Basolateral Side", "setting": "Caco-2 cell monolayer; apical ANC 0.15 ×10^−3 mg/mL, without FA-g-CS co-treatment, 4 h", "value": "0.0018 ± 0.00001", "unit": "c ×10^−3 mg/mL"}, {"measurement": "Concentrations of ANC at the Basolateral Side", "setting": "Caco-2 cell monolayer; apical ANC 0.20 ×10^−3 mg/mL, in presence of 0.05 × 10^−3 mg/mL FA-g-CS, 1 h", "value": "0.0020 ± 0.0001", "unit": "c ×10^−3 mg/mL"}, {"measurement": "Concentrations of ANC at the Basolateral Side", "setting": "Caco-2 cell monolayer; apical ANC 0.20 ×10^−3 mg/mL, in presence of 0.05 × 10^−3 mg/mL FA-g-CS, 2 h", "value": "0.0023 ± 0.0002", "unit": "d ×10^−3 mg/mL"}, {"measurement": "Concentrations of ANC at the Basolateral Side", "setting": "Caco-2 cell monolayer; apical ANC 0.20 ×10^−3 mg/mL, in presence of 0.05 × 10^−3 mg/mL FA-g-CS, 3 h", "value": "0.0032 ± 0.0001", "unit": "e ×10^−3 mg/mL"}, {"measurement": "Concentrations of ANC at the Basolateral Side", "setting": "Caco-2 cell monolayer; apical ANC 0.20 ×10^−3 mg/mL, in presence of 0.05 × 10^−3 mg/mL FA-g-CS, 4 h", "value": "0.0033 ± 0.0001", "unit": "e ×10^−3 mg/mL"}, {"measurement": "Concentrations of ANC at the Basolateral Side", "setting": "Caco-2 cell monolayer; apical ANC 0.20 ×10^−3 mg/mL, without FA-g-CS co-treatment, 1 h", "value": "0.0007 ± 0.00001", "unit": "a ×10^−3 mg/mL"}, {"measurement": "Concentrations of ANC at the Basolateral Side", "setting": "Caco-2 cell monolayer; apical ANC 0.20 ×10^−3 mg/mL, without FA-g-CS co-treatment, 2 h", "value": "0.001 ± 0.0002", "unit": "b ×10^−3 mg/mL"}, {"measurement": "Concentrations of ANC at the Basolateral Side", "setting": "Caco-2 cell monolayer; apical ANC 0.20 ×10^−3 mg/mL, without FA-g-CS co-treatment, 3 h", "value": "0.0012 ± 0.0001", "unit": "b ×10^−3 mg/mL"}, {"measurement": "Concentrations of ANC at the Basolateral Side", "setting": "Caco-2 cell monolayer; apical ANC 0.20 ×10^−3 mg/mL, without FA-g-CS co-treatment, 4 h", "value": "0.0019 ± 0.0001", "unit": "c ×10^−3 mg/mL"}, {"measurement": "influence on Caco-2 cells (Figure 1A–C, MTT)", "setting": "Caco-2 cells; 2.3 × 10^−4 or 6.9 × 10^−4 mg/mL ANC", "value": "insignificant influence"}, {"measurement": "effect on cell viability (MTT)", "setting": "Caco-2 cells; ANC concentration lower than 6.17 × 10^−3 mg/mL, 48 h", "value": "no significant effect"}, {"measurement": "protein level of sGLT1 (immunofluorescence) compared with the control cells", "setting": "sGLT1", "value": "increased"}]}
